Results reported in PMC6364417, “Kinase inhibitor library screening identifies synergistic drug combinations effective in sensitive and resistant melanoma cells” (Journal of Experimental & Clinical Cancer Research : CR, 2019).
Structures can show the parent of a compound that is named as a salt.

Columns and labels:
Assay in all cases: Kinase inhibitor library screening, PrestoBlue cell viability, 1 or 10 μM, 72 h
501Mel cells (parental) = conditions: 72 h; for viability at 1 µM / viability at 10 µM: Homo sapiens; for viability at 1 µM: read-out: cell viability, 501Mel Parental, 1μΜ; for viability at 10 µM: read-out: cell viability, 501Mel Parental, 10μΜ
How it was run: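 Parental cells and Vemurafenib-resistant (XP) or Dabrafenib-resistant (GP) derivatives were treated with library kinase inhibitors at 1 and 10 μM for 72 h. Viability measured by PrestoBlue and expressed as % of untreated cells, at least in duplicate.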

[1] = system: 501Mel-GP cells (Dabrafenib-resistant); conditions: 72 h; for viability at 1 µM / viability at 10 µM: Homo sapiens; for viability at 1 µM: read-out: cell viability, 501Mel GP, 1μΜ; for viability at 10 µM: read-out: cell viability, 501Mel GP, 10μΜ
[2] = system: 501Mel-XP cells (Vemurafenib-resistant); conditions: 72 h; for viability at 1 µM / viability at 10 µM: Homo sapiens; for viability at 1 µM: read-out: cell viability, 501Mel XP, 1μΜ; for viability at 10 µM: read-out: cell viability, 501Mel XP, 10μΜ
A375 cells (parental) = conditions: for viability at 1 µM / viability at 10 µM: Homo sapiens, A-375, 72 h; for viability at 1 µM: read-out: cell viability, A375 Parental, 1μΜ; for viability at 10 µM: read-out: cell viability, A375 Parental, 10μΜ
[3] = system: A375-GP cells (Dabrafenib-resistant); conditions: for viability at 1 µM / viability at 10 µM: Homo sapiens, A-375, 72 h; for viability at 1 µM: read-out: cell viability, A375 GP, 1μΜ; for viability at 10 µM: read-out: cell viability, A375 GP, 10μΜ
[4] = system: A375-XP cells (Vemurafenib-resistant); conditions: for viability at 1 µM / viability at 10 µM: Homo sapiens, A-375, 72 h; for viability at 1 µM: read-out: cell viability, A375 XP, 1μΜ; for viability at 10 µM: read-out: cell viability, A375 XP, 10μΜ
IGR37 cells (parental) = conditions: for viability at 1 µM / viability at 10 µM: Homo sapiens, IGR-37, 72 h; for viability at 1 µM: read-out: cell viability, IGR37 Parental, 1μΜ; for viability at 10 µM: read-out: cell viability, IGR37 Parental, 10μΜ
[5] = system: IGR37-GP cells (Dabrafenib-resistant); conditions: for viability at 1 µM / viability at 10 µM: Homo sapiens, IGR-37, 72 h; for viability at 1 µM: read-out: cell viability, IGR37 GP, 1μΜ; for viability at 10 µM: read-out: cell viability, IGR37 GP, 10μΜ
[6] = system: IGR37-XP cells (Vemurafenib-resistant); conditions: for viability at 1 µM / viability at 10 µM: Homo sapiens, IGR-37, 72 h; for viability at 1 µM: read-out: cell viability, IGR37 XP, 1μΜ; for viability at 10 µM: read-out: cell viability, IGR37 XP, 10μΜ
[7] = IGR37 Parental, 10μΜ, 72 h, in %

Row | Structure (SMILES) | viability at 1 µM (501Mel cells (parental)) [%] | viability at 10 µM (501Mel cells (parental)) [%] | viability at 1 µM [1] [%] | viability at 10 µM [1] [%] | viability at 1 µM [2] [%] | viability at 10 µM [2] [%] | viability at 1 µM (A375 cells (parental)) [%] | viability at 10 µM (A375 cells (parental)) [%] | viability at 1 µM [3] [%] | viability at 10 µM [3] [%] | viability at 1 µM [4] [%] | viability at 10 µM [4] [%] | viability at 1 µM (IGR37 cells (parental)) [%] | viability at 10 µM (IGR37 cells (parental)) [%] | viability at 1 µM [5] [%] | viability at 10 µM [5] [%] | viability at 1 µM [6] [%] | viability at 10 µM [6] [%] | other results
1 | C#Cc1cccc(Nc2ncnc3cc(OCCOC)c(OCCOC)cc23)c1 [Erlotinib HCl] | 97.2 | 84.3 | 95 | 61.2 | 86.3 | 38 | 100 | 73.4 | 96.2 | 69.1 | 100 | 83.4 | 95.5 | 92 | 93.1 | 67.5 | 92.4 | 51.9 | 
2 | Cc1cc(Nc2cc(N3CCN(C)CC3)nc(/C=C/c3ccccc3)n2)n[nH]1 [ENMD-2076] | 97 | 3.4 | 99.4 | 25.5 | 69.3 | 1.1 | 67.6 | 21.2 | 65.8 | 20.9 | 79.9 | 19.2 | 96.5 | 25.6 | 90.4 | 5.2 | 89.3 | 2.2 | 
3 | COc1cccc2cc(-c3nc([C@H]4CC[C@H](C(=O)O)CC4)n4ncnc(N)c34)[nH]c12 [OSI-027] |  |  |  |  |  |  |  |  |  |  |  |  |  |  |  |  |  |  | Cell viability in kinase inhibitor library screening, 501Mel Parental, 1μΜ (501Mel cells (parental); 501Mel Parental, 1μΜ, in %): 74.7; Cell viability in kinase inhibitor library screening, 501Mel Parental, 10μΜ (501Mel cells (parental); 501Mel Parental, 10μΜ, in %): 14.4; Cell viability in kinase inhibitor library screening, 501Mel GP, 1μΜ ([1]; 501Mel GP, 1μΜ, in %): 59.2; Cell viability in kinase inhibitor library screening, 501Mel GP, 10μΜ ([1]; 501Mel GP, 10μΜ, in %): 13.9; Cell viability in kinase inhibitor library screening, 501Mel XP, 1μΜ ([2]; 501Mel XP, 1μΜ, in %): 55.5; Cell viability in kinase inhibitor library screening, 501Mel XP, 10μΜ ([2]; 501Mel XP, 10μΜ, in %): 6.8; Cell viability in kinase inhibitor library screening, A375 Parental, 10μΜ (A375 cells (parental); A375 Parental, 10μΜ, 72 h): 24.3; Cell viability in kinase inhibitor library screening, A375 Parental, 1μΜ (A375 cells (parental); A375 Parental, 1μΜ, 72 h): 72.3; Cell viability in kinase inhibitor library screening, A375 GP, 1μΜ ([3]; A375 GP, 1μΜ, 72 h): 62.5; Cell viability in kinase inhibitor library screening, A375 GP, 10μΜ ([3]; A375 GP, 10μΜ, 72 h): 21.4; Cell viability in kinase inhibitor library screening, A375 XP, 1μΜ ([4]; A375 XP, 1μΜ, 72 h): 55.5; Cell viability in kinase inhibitor library screening, A375 XP, 10μΜ ([4]; A375 XP, 10μΜ, 72 h): 19.1; Cell viability in kinase inhibitor library screening, IGR37 Parental, 1μΜ (IGR37 cells (parental); IGR37 Parental, 1μΜ, 72 h, in %): 84.3; Cell viability in kinase inhibitor library screening, IGR37 Parental, 10μΜ (IGR37 cells (parental); [7]): 46.6; Cell viability in kinase inhibitor library screening, IGR37 GP, 10μΜ ([5]; IGR37 GP, 10μΜ, 72 h): 40%; Cell viability in kinase inhibitor library screening, IGR37 GP, 1μΜ ([5]; IGR37 GP, 1μΜ, 72 h, in %): 81.3; Cell viability in kinase inhibitor library screening, IGR37 XP, 1μΜ ([6]; IGR37 XP, 1μΜ, 72 h, in %): 72.2
4 | CCO.N#CC(=C(/N)Sc1ccccc1N)/C(C#N)=C(\N)Sc1ccccc1N [U0126-EtOH] |  |  |  |  |  |  |  |  |  |  |  |  |  |  |  |  |  |  | cell viability, 501Mel Parental, 1μΜ (501Mel cells (parental); 501Mel Parental, 1μΜ, in %): 94.5; cell viability, 501Mel Parental, 10μΜ (501Mel cells (parental); 501Mel Parental, 10μΜ, in %): 65.9; cell viability, 501Mel GP, 1μΜ ([1]; 501Mel GP, 1μΜ, in %): 105.2; cell viability, 501Mel GP, 10μΜ ([1]; 501Mel GP, 10μΜ, in %): 75.1; cell viability, 501Mel XP, 1μΜ ([2]; 501Mel XP, 1μΜ, in %): 86.9; cell viability, 501Mel XP, 10μΜ ([2]; 501Mel XP, 10μΜ, in %): 62.2; cell viability, A375 Parental, 1μΜ (A375 cells (parental); A375 Parental, 1μΜ, 72 h, in %): 100.1; cell viability, A375 Parental, 10μΜ (A375 cells (parental); A375 Parental, 10μΜ, 72 h, in %): 39.4; cell viability, A375 GP, 1μΜ ([3]; A375 GP, 1μΜ, 72 h, in %): 93.9; cell viability, A375 GP, 10μΜ ([3]; A375 GP, 10μΜ, 72 h, in %): 64.5; cell viability, A375 XP, 1μΜ ([4]; A375 XP, 1μΜ, 72 h, in %): 94.5; cell viability, A375 XP, 10μΜ ([4]; A375 XP, 10μΜ, 72 h, in %): 60.2; cell viability, IGR37 Parental, 10μΜ (IGR37 cells (parental); [7]): 35.1; cell viability, IGR37 GP, 10μΜ ([5]; IGR37 GP, 10μΜ, 72 h): 83.5%; cell viability, IGR37 GP, 1μΜ ([5]; IGR37 GP, 1μΜ, 72 h, in %): 93.8; cell viability, IGR37 XP, 10μΜ ([6]; IGR37 XP, 10μΜ, 72 h): 45.1%; cell viability, IGR37 XP, 1μΜ ([6]; IGR37 XP, 1μΜ, 72 h, in %): 92.3
